Source: patent US20190247322A1, “Active Mixture of 1,2-hexanediol and 1,2-octanediol” (Symrise AG, priority 2015, published 2019)

Legend:
[1] = water (20° dH) at 20° C., solid active agent; cited from earlier work
Aspergillus niger = experiment: Antimicrobial activity, minimum inhibitory concentration; format: cell-based
Text: (§1) Antimicrobial activity of a mixture of 1,2-hexanediol and 1,2-octanediol (1:1) was investigated compared to the individual 1,2-diols with regard to 5 prominent microorganisms:
(§2) EC Echerichia coli PA Pseudomonas aeruginosa SA Staphylococcus aureus CA Candida albicans AN Aspergillus niger
(§3) Shown are the minimum inhibitory concentrations (MICs) in percent.

Candida albicans = experiment: as above; format: cell-based
Text: as §1, §2, §3

Echerichia coli = experiment: as above; format: cell-based
Text: as §1, §2, §3

Pseudomonas aeruginosa = experiment: as above; format: cell-based
Text: as §1, §2, §3

Staphylococcus aureus = experiment: as above; format: cell-based
Text: as §1, §2, §3

Row | minimum inhibitory concentration (MIC), AN (Aspergillus niger) | minimum inhibitory concentration (MIC), CA (Candida albicans) | minimum inhibitory concentration (MIC), EC (Echerichia coli) | minimum inhibitory concentration (MIC), PA (Pseudomonas aeruginosa) | minimum inhibitory concentration (MIC), SA (Staphylococcus aureus) | Compound | solubility in water [1]
1 |  |  |  |  |  | Nc1nc2c(ncn2COCCO)c(=O)[nH]1 [Acyclovir, 2-Amino-1,9-dihydro-9-((2-hydroxyethoxy)methyl)-6H-Purin-6-one] | less than 5 g/L
2 | 0.63% | 1.25% | 1.25% | 0.63% | 2.50% | CCCCC(O)CO (centres unmarked) [Comparative Example C1, 1,2-hexanediol] | 
3 | 0.16% | 0.31% | 0.63% | 0.63% | 1.25% | CCCCCCC(O)CO (centres unmarked) [Comparative Example C2, 1,2-octanediol] | 
